According to patent US11331364B2, “Use for JNK inhibitor molecules for treatment of various diseases” (Xigen Inflammation Ltd., priority 2014, dated 2022):
Square brackets hold non-standard residues; d marks the D form. Peptide text beside a SMILES is read from it.

Legend:
[1] = system: primary rat lymph-nodes purified T cells; test: CD3/CD28-induced IL-2 release in primary rat lymph-nodes purified T cells; type: cell-based; settings: added 1 h before CD3/CD28 (2 μg/mL); supernatant 24 h
Description: Control rat were sacrificed and lymph-nodes were harvested. T cells further were purified (using magnetic negative selection) and plated into 96-well plates at 200.000 cells/well. Cells were treated with anti-rat CD3 and anti-rat CD28 antibodies (2 μg/mL). JNK inhibitor with SEQ ID NO: 172 was added to the cultures 1 h before CD3/CD28 treatment and IL-2 release was assessed in supernatant 24 h after treatment.
Control animal were sacrificed, lymph nodes (LN) were harvested and kept in complete RPMI medium. LN were smashed with complete RPMI on 70 μm filter using a 5 ml piston. A few drops of media were added to keep strainer wet. Cells were centrifuged for 7 min at 450 g and 4° C. Pellet was resuspended in 5 ml fresh medium. Cells were passed again through cell strainer. An aliquot of cells was counted, while cells were centrifuged again 10 min at 1400 rpm and 4° C. Cells were resuspended in MACS buffer (80 μl of MACS buffer per 10^7 cells). 10 μl of anti-rat MHC microbeads were added per 10 million cells, cells were incubated for 15 min at 4°-8° C. Cells were washed with 15 ml MACS buffer and centrifuge for 7 min at 700 g and 4° C. […] Resuspended cells were counted and plated at density of 200000 cells/well in 100 μl of complete medium. […] Cytokines were then measured using standard Elisa kits. Results are expressed as pg/ml of supernatant of the measured cytokine. […]

[2] = system: Endotoxin-Induced Uveitis (EIU) model in rats; test: Action duration in endotoxin-induced uveitis (EIU), clinical scoring and PMN cells quantification; type: in vivo, rat
Description: […] (18) female Lewis rats (36 eyes) were randomly divided into 6 groups of 3 animals each. EIU was induced by a single footpad injection of 100 µl sterile pyrogen-free saline containing 200 µg of LPS (Lipopolysaccharides from Salmonella typhimurium, Sigma-Aldrich, France)(2 mg/ml).
Animals were treated 48 hours, 1 week, 2 weeks or 4 weeks before EIU induction by intravenous injection of the JNK inhibitor according to SEQ ID NO: 172 (“XG-104”) at a single dose of 1 mg/kg (dose volume 1 ml/kg) in the tail vein. Dexamethasone 2 mg/kg or vehicle (NaCl 0.9%) were injected intravenously immediately before EIU induction.
The effect of the JNK inhibitor according to SEQ ID NO: 172 (“XG-104”) on EIU was evaluated using clinical scoring and PMN cells quantification 24 hours after induction. Ocular examinations were performed by slit lamp at 24 hours i.e. at the clinical peak of the disease in this model. The intensity of clinical ocular inflammation was scored on a scale from 0 to 5 for each eye: • Grade 0: no inflammation, • Grade 1: presence of a minimal iris and conjunctival vasodilatation but without the observation of flare or cells in the anterior chamber (AC), • Grade 2: presence of moderate iris and conjunctival vessel dilation but without evident flare or cells in the AC, • Grade 3: presence of intense iris vessels dilation, flare and less than 10 cells per slit lamp, field in the AC, • Grade 4: presence of more severe clinical signs than grade 3, with more than 10 cells in the AC with or without the formation of a hypopyon, • Grade 5: presence of intense inflammatory reaction, fibrin formation in the AC and total seclusion of the pupil.
For histology, eighteen eyeballs (one per animal) were collected and fixed for 1 h at room temperature in phosphate buffered saline (PBS) containing 4% paraformaldehyde before being rinsed overnight in PBS. The next day, samples were embedded in optimal cutting temperature (OTC) compound (Tissue-Tek®, Sakura Finetek, Zoeterwoude, Netherland) and the optic nerve level using a cryostat (Leica CM 3050S, France) and mounted on super-frost slides for histology. After nuclei staining with DAPI (Sigma-Aldrich, France), sections were mounted in PBS/Glycerol (1/1) and observed by fluorescence photomicroscopy (FXA Microphot, Nikon, USA). Digitized micrographs were obtained usinga digital camera (Spot, BFI Optilas, France). PMN cells identified by the shape of their nuclei stained with DAPI, were quantified on histological sections. The analysis was performed with 2 different sections per eye at the optic nerve head level.
Twenty-four hours after LPS induction, clinical scores for the vehicle-treated rats were 4.6±0.2 (mean±SEM, n=8). Reduction was calculated as (grade in vehicle-treated eye—grade in test item treated eye)/(grade in vehicle-treated eye). A significant reduction (*p<0.05, **p<0.01) in the severity of the ocular inflammation was detected 24 hours after induction and intravenous treatment with the JNK inhibitor according to SEQ ID NO: 172 (“XG-104”) (1 mg/kg) administered 48 hours before EIU induction (mean score: 2.8±0.3), corresponding to a 40% (**) decrease of EIU scores compared with the score observed in vehicle group, 24 hours after induction and intravenous treatment with the JNK inhibitor according to SEQ ID NO: 172 (“XG-104”) (1 mg/kg) administered 1 week before EIU induction (mean score: 3.3±0.3), corresponding to a 27% (*) decrease of EIU scores compared with the score observed in vehicle group, and 24 hours after induction and intravenous treatment with the JNK inhibitor according to SEQ ID NO: 172 (“XG-104”) (1 mg/kg) administered 2 weeks before EIU induction (mean score: 3.0±0.2), corresponding to a 35% (**) decrease of EIU scores compared with the score observed in vehicle group. […]

[3] = 1 mg/kg i.v. 1 week before EIU induction
[4] = 1 mg/kg i.v. 2 weeks before EIU induction
[5] = 1 mg/kg i.v. 4 weeks before EIU induction
[6] = 1 mg/kg i.v. 48 hours before EIU induction

Structure (SMILES): CC(C)C[C@H](NC(=O)[C@H](CC(N)=O)NC(=O)[C@H](CC(C)C)NC(=O)[C@@H](NC(=O)[C@@H](C)NC(=O)[C@@H]1CCCN1C(=O)[C@H](CCCNC(=N)N)NC(=O)[C@@H](CCCCN)NC(=O)[C@@H]1CCCN1C(=O)[C@H](CCCNC(=N)N)NC(=O)[C@@H](CCCNC(=N)N)NC(=O)[C@H](CCCNC(=N)N)NC(=O)[C@H](CCCNC(=N)N)NC(=O)[C@H](CCC(N)=O)NC(=O)[C@@H](CCCNC(=N)N)NC(=O)[C@H](CCCNC(=N)N)NC(=O)[C@H](CCCCN)NC(=O)[C@H](CCCCN)NC(=O)[C@H](N)CCCNC(=N)N)[C@@H](C)O)C(=O)N[C@H](Cc1ccccc1)C(N)=O [SEQ ID NO: 172, rKKRrQRRrRPkRPaTLNLf] (H-[dR]KKR[dR]QRR[dR]RP[dK]RP[dA]TLNL[dF]-NH2; N-terminus assumed)
- CD3/CD28-induced IL-2 release [1]: Dose-dependent inhibition
- clinical score (mean±SEM) [2, 3]: 3.3±0.3
- decrease of EIU scores vs vehicle group [2, 3]: 27%
- clinical score (mean±SEM) [2, 4]: 3.0±0.2
- decrease of EIU scores vs vehicle group [2, 4]: 35%
- number of PMN cells [2, 4]: significantly decreased
- reduction of number of PMN cells vs vehicle [2, 4]: 88%
- clinical score (mean±SEM) [2, 5]: 4.2±0.1
- decrease of EIU scores vs vehicle group [2, 5]: 9%
- number of PMN cells [2, 5]: significantly decreased
- reduction of number of PMN cells vs vehicle [2, 5]: 69%
- clinical score (mean±SEM) [2, 6]: 2.8±0.3
- decrease of EIU scores vs vehicle group [2, 6]: 40%
